Experiments:
[1] = test system: ST486 (Burkitt's Lymphoma); test: combination Emax (second highest fraction inhibited in the dose matrix, 72 h); higher = more inhibition; extreme values may be limits of the assay
Summary of the method: (§1)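 Bliss excess equals the observed combination effect minus the expected value EA + EB − EA·EB, where EA and EB are the effects of each agent alone. Combination Emax is the second-highest inhibition within the matrix. Inhibition was scaled from CellTiter-Glo 2.0 luminescence, with 0 set by vehicle wells and 1 by blank wells, after 72 hours of two-drug dosing of cells plated in 1536-well plates.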

[2] = test system: HCC1187 (Breast Carcinoma); test: as above
Summary of the method: as §1

[3] = test system: MOLM-13 (Acute Myeloid Leukemia); test: as above
Summary of the method: as §1

NCI-H2731 (Mesothelioma) = test: as above
Summary of the method: as §1

[4] = test system: KYSE-270 (Esophageal Squamous Cell Carcinoma); test: as above
Summary of the method: as §1

[5] = test system: NCI-H661 (Non-Small Cell Lung Carcinoma); test: as above
Summary of the method: as §1

[6] = test system: KP-3 (Pancreatic Carcinoma); test: as above
Summary of the method: as §1

[7] = test system: ESO51 (Esophageal Adenocarcinoma); test: as above
Summary of the method: as §1

[8] = test system: JHH-4 (Hepatocellular Carcinoma); test: as above
Summary of the method: as §1

SJSA-1 (Osteosarcoma) = test: as above
Summary of the method: as §1

[9] = test system: RPMI-8226 (Plasma Cell Myeloma); test: as above
Summary of the method: as §1

[10] = test system: H9 (T-Cell Non-Hodgkin's Lymphoma); test: as above
Summary of the method: as §1

[11] = test system: CHSA8926 (Chondrosarcoma); test: as above
Summary of the method: as §1

M059J (Glioblastoma) = test: as above
Summary of the method: as §1

[12] = test system: SK-GT-2 (Gastric Carcinoma); test: as above
Summary of the method: as §1

[13] = test system: DMS-114 (Small Cell Lung Carcinoma); test: as above
Summary of the method: as §1

[14] = test system: IM-95 (Gastric Carcinoma); test: as above
Summary of the method: as §1

[15] = test system: SK-GT-4 (Esophageal Adenocarcinoma); test: as above
Summary of the method: as §1

[16] = test system: SUP-B15 (B-Lymphoblastic Leukemia); test: Bliss excess, mean over the matrix (fraction); higher = more synergy
Summary of the method: as §1

Row | Structure (SMILES) | combination Emax [1] | combination Emax [2] | combination Emax [3] | combination Emax (NCI-H2731 (Mesothelioma)) | combination Emax [4] | combination Emax [5] | combination Emax [6] | combination Emax [7] | combination Emax [8] | combination Emax (SJSA-1 (Osteosarcoma)) | combination Emax [9] | combination Emax [10] | combination Emax [11] | combination Emax (M059J (Glioblastoma)) | combination Emax [12] | combination Emax [13] | combination Emax [14] | combination Emax [15] | Bliss excess [16]
1 | Cc1nc(Nc2ncc(C(=O)Nc3c(C)cccc3Cl)s2)cc(N2CCN(CCO)CC2)n1 [Dasatinib] + CC(=O)Nc1cccc(-n2c(=O)n(C3CC3)c(=O)c3c(Nc4ccc(I)cc4F)n(C)c(=O)c(C)c32)c1 [Trametinib] (first compound max 2 µM, 7x7, partner max 1 µM) | 0.611 | 0.137 | 0.955 | 0.361 | 0.603 | 0.502 | 0.61 | 0.949 | 1 | 0.522 | 0.239 | 0.892 | 0.823 | 0.492 | 0.545 | 0.326 | 0.288 | 0.791 | -0.0562
2 | CC(=O)c1c(C)c2cnc(Nc3ccc(N4CCNCC4)cn3)nc2n(C2CCCC2)c1=O [Palbociclib] + Cn1cnc2c(F)c(Nc3ccc(Br)cc3Cl)c(C(=O)NOCCO)cc21 [Selumetinib] (first compound max 10 µM, 7x7, partner max 10 µM) | 0.79 | 0.129 | 0.982 | 0.191 | 0.252 | 0.119 | 0.244 | 0.601 | 0.59 | 0.424 | 0.547 | 0.956 | 0.178 | 0.179 | 0.165 | 0.264 | 0.315 | 0.566 | 0.0147
3 | NC1(C(=O)N[C@@H](CCO)c2ccc(Cl)cc2)CCN(c2ncnc3[nH]ccc23)CC1 [Capivasertib] + Cn1cnc2c(F)c(Nc3ccc(Br)cc3Cl)c(C(=O)NOCCO)cc21 [Selumetinib] (first compound max 10 µM, 7x7, partner max 10 µM) | 0.559 | 0.296 | 0.986 | 0.306 | 0.476 | 0.427 | 0.417 | 0.624 | 0.663 | 0.658 | 0.43 | 1 | 0.48 | 0.415 | 0.497 | 0.456 | 0.502 | 0.767 | 0.0854
4 | NC1(C(=O)N[C@@H](CCO)c2ccc(Cl)cc2)CCN(c2ncnc3[nH]ccc23)CC1 [Capivasertib] + C[C@@H]1COCCN1C2=NC(=NC(=C2)C3(CC3)[S@](=N)(=O)C)C4=C5C=CNC5=NC=C4 [AZD6738] (first compound max 10 µM, 7x7, partner max 10 µM) | 0.881 | 0.51 | 0.982 | 0.514 | 0.651 | 0.569 | 0.318 | 0.817 | 0.309 | 0.713 | 0.875 | 1 | 0.54 | 0.622 | 0.601 | 0.623 | 0.456 | 0.614 | 0.0044
5 | NC1(C(=O)N[C@@H](CCO)c2ccc(Cl)cc2)CCN(c2ncnc3[nH]ccc23)CC1 [Capivasertib] + CCN(CCO)CCCOc1ccc2c(Nc3cc(CC(=O)Nc4cccc(F)c4)[nH]n3)ncnc2c1 [AZD2811] (first compound max 10 µM, 7x7, partner max 1 µM) | 0.834 | 0.833 | 0.993 | 0.398 | 0.329 | 0.36 | 0.284 | 0.248 | 0.226 | 0.489 | 0.422 | 1 | 0.46 | 0.517 | 0.417 | 0.456 | 0.427 | 0.621 | -0.103
6 | NC1(C(=O)N[C@@H](CCO)c2ccc(Cl)cc2)CCN(c2ncnc3[nH]ccc23)CC1 [Capivasertib] + CC(=O)c1c(C)c2cnc(Nc3ccc(N4CCNCC4)cn3)nc2n(C2CCCC2)c1=O [Palbociclib] (first compound max 10 µM, 7x7, partner max 10 µM) | 0.549 | 0.257 | 0.98 | 0.361 | 0.27 | 0.368 | 0.25 | 0.356 | 0.466 | 0.51 | 0.483 | 0.985 | 0.48 | 0.338 | 0.248 | 0.284 | 0.423 | 0.588 | -0.007
7 | NC1(C(=O)N[C@@H](CCO)c2ccc(Cl)cc2)CCN(c2ncnc3[nH]ccc23)CC1 [Capivasertib] + COc1nnc2ccc(N3CCC(c4ccc(OCCN5CCN(C)C(=O)[C@H]5C)cc4)CC3)nn12 [AZD5153] (first compound max 10 µM, 7x7, partner max 1 µM) | 0.91 | 0.309 | 1 | 0.588 | 0.466 | 0.454 | 0.296 | 0.622 | 0.324 | 0.727 | 0.878 | 1 | 0.48 | 0.682 | 0.362 | 0.529 | 0.562 | 0.758 | 0.0274
8 | CS(=O)(=O)CCNCc1ccc(-c2ccc3ncnc(Nc4ccc(OCc5cccc(F)c5)c(Cl)c4)c3c2)o1 [Lapatinib] + Cn1cnc2c(F)c(Nc3ccc(Br)cc3Cl)c(C(=O)NOCCO)cc21 [Selumetinib] (first compound max 10 µM, 7x7, partner max 10 µM) | 0.825 |  |  | 0.35 | 0.542 |  | 0.367 |  |  | 0.422 |  |  |  | 0.365 |  | 0.437 |  | 0.585 | 
9 | NC1(C(=O)N[C@@H](CCO)c2ccc(Cl)cc2)CCN(c2ncnc3[nH]ccc23)CC1 [Capivasertib] + CC(C)n1c(=O)n(C)c2cnc3cc(F)c(-c4ccc(OCCCN5CCCCC5)nc4)cc3c21 [AZD1390] (first compound max 10 µM, 7x7, partner max 0.3 µM) | 0.215 | 0.296 | 0.739 | 0.265 | 0.415 | 0.245 | 0.203 | 0.246 | 0.178 | 0.406 | 0.135 | 0.78 | 0.379 | 0.512 | 0.338 | 0.442 | 0.333 | 0.506 | -0.0059
10 | CC(=O)c1c(C)c2cnc(Nc3ccc(N4CCNCC4)cn3)nc2n(C2CCCC2)c1=O [Palbociclib] + Cc1c2c(nn1C)CSCc1cc(n(C)n1)CSc1cc(c3ccccc3c1)OCCCc1c(C(=O)O)n(C)c3c-2c(Cl)ccc13 [AZD5991] (first compound max 10 µM, 7x7, partner max 1 µM) | 0.832 | 1 | 1 | 0.214 | 0.568 | 0.631 | 0.221 | 0.218 | 0.397 | 0.351 | 0.939 | 0.742 | 0.289 | 0.191 | 0.168 | 0.49 | 0.33 | 0.305 | -0.207
11 | CC(=O)c1c(C)c2cnc(Nc3ccc(N4CCNCC4)cn3)nc2n(C2CCCC2)c1=O [Palbociclib] + CC1(C)CCC(CN2CCN(c3ccc(C(=O)NS(=O)(=O)c4ccc(NCC5CCOCC5)c([N+](=O)[O-])c4)c(Oc4cnc5[nH]ccc5c4)c3)CC2)=C(c2ccc(Cl)cc2)C1 [Venetoclax] (first compound max 10 µM, 7x7, partner max 1 µM) | 0.581 | 0.198 | 1 | 0.211 | 0.125 | 0.0364 | 0.0792 | 0.288 | 0.328 | 0.276 | 0.387 | 0.626 | 0.188 | 0.0491 | 0.0922 | 0.209 | 0.105 | 0.216 | -0.0176
12 | CS(=O)(=O)CCNCc1ccc(-c2ccc3ncnc(Nc4ccc(OCc5cccc(F)c5)c(Cl)c4)c3c2)o1 [Lapatinib] + C[C@@H](Oc1cc(-c2cnn(C3CCNCC3)c2)cnc1N)c1c(Cl)ccc(F)c1Cl [Crizotinib] (first compound max 10 µM, 7x7, partner max 10 µM) | 0.942 | 0.715 | 0.996 | 0.921 | 0.967 | 0.703 | 0.557 | 0.997 | 0.546 | 0.908 | 0.679 | 0.983 | 0.928 | 0.801 | 0.995 | 0.893 | 0.854 | 0.82 | 0.024
13 | CCc1c2c(nc3ccc(O)cc13)-c1cc3c(c(=O)n1C2)COC(=O)[C@]3(O)CC [SN-38] + O=C(c1cc(Cc2n[nH]c(=O)c3ccccc23)ccc1F)N1CCN(C(=O)C2CC2)CC1 [Olaparib] (first compound max 0.3 µM, 7x7, partner max 10 µM) | 0.702 | 0.467 |  | 0.503 | 0.949 | 0.548 | 0.0787 | 0.624 |  | 0.804 |  | 1 | 0.452 | 0.987 |  | 0.491 | 0.465 | 0.4 | 

Source: the supplement of paper PMC11061612
